Among the data in publication PMC11593814, “Novel Basidiomycetous Alcohol Oxidase from Cerrena unicolor—Characterisation, Kinetics, and Proteolytic Modifications” (International Journal of Molecular Sciences, 2024) are Km values, retold here.

In the test the test system is T1, alcohol oxidase (AOX) from Cerrena unicolor FCL139.
T1 construct: native, semi-purified from mycelium (ammonium sulphate, HIC, SEC); octamer stated as typical; no tag
The test can be described thus: acetylacetone assay ([…],5-diacetyl-1,4-dihydrolutidine), Michaelis-Menten non-linear fit. The following applies: semi-purified native enzyme; substrate 1-100 mM; pH and temperature of the kinetics not given. The format is biochemical.

The structures appear in SMILES notation.

On to `CO` [Methanol], for which the Km is 13 ± 1 mM.

On to `COc1ccc(CO)cc1OC` [Veratryl alcohol], for which the Km was determined as 31 ± 4 mM.

Regarding `OC[C@H](O)C(O)[C@@H](O)CO` [L-arabinitol], the Km amounted to 37 ± 3 mM.
